From the supplement of paper PMC10307832

Legend:
Experiment in all cases: relative viability (nuclei count vs DMSO), 5 days (fraction); higher = more cells survive
VX-702 + Alpelisib = compound: NC(=O)c1ccc(N(C(N)=O)c2c(F)cccc2F)nc1-c1ccc(F)cc1F [VX-702] + Cc1nc(NC(=O)N2CCC[C@H]2C(N)=O)sc1-c1ccnc(C(C)(C)C(F)(F)F)c1 [Alpelisib] (partner 2 µM)
Outline: (§1)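 One day after seeding in 1536-well plates, lung cancer cell lines were dosed by pin tool. Dosing was either single-drug or a fixed anchor-drug dose plus five library-drug doses (not always all listed) in √10 steps. After 5 days, nuclei were stained in one fix-and-stain step and counted on 4× images, and relative viability is the nuclei count of treated wells over that of vehicle wells, given as the median of duplicate plates.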

Dabrafenib + Pemetrexed = compound: CC(C)(C)c1nc(-c2cccc(NS(=O)(=O)c3c(F)cccc3F)c2F)c(-c2ccnc(N)n2)s1 [Dabrafenib] + Nc1nc2[nH]cc(CCc3ccc(C(=O)N[C@@H](CCC(=O)O)C(=O)O)cc3)c2c(=O)[nH]1 [Pemetrexed] (partner 0.2 µM)
Outline: as §1

Dabrafenib + Palbociclib = compound: CC(C)(C)c1nc(-c2cccc(NS(=O)(=O)c3c(F)cccc3F)c2F)c(-c2ccnc(N)n2)s1 [Dabrafenib] + CC(=O)c1c(C)c2cnc(Nc3ccc(N4CCNCC4)cn3)nc2n(C2CCCC2)c1=O [Palbociclib] (partner 0.5 µM)
Outline: as §1

VX-702 + Decitabine = compound: NC(=O)c1ccc(N(C(N)=O)c2c(F)cccc2F)nc1-c1ccc(F)cc1F [VX-702] + Nc1ncn([C@H]2C[C@H](O)[C@@H](CO)O2)c(=O)n1 [Decitabine] (partner 2 µM)
Outline: as §1

| Cell Line | relative viability (VX-702 + Alpelisib; first compound 0.02 µM) | relative viability (VX-702 + Alpelisib; first compound 0.2 µM) | relative viability (VX-702 + Alpelisib; first compound 0.6325 µM) | relative viability (VX-702 + Alpelisib; first compound 2 µM) | relative viability (Dabrafenib + Pemetrexed; first compound 0.009487 µM) | relative viability (Dabrafenib + Pemetrexed; first compound 0.03 µM) | relative viability (Dabrafenib + Pemetrexed; first compound 0.09487 µM) | relative viability (Dabrafenib + Pemetrexed; first compound 0.3 µM) | relative viability (Dabrafenib + Palbociclib; first compound 0.003 µM) | relative viability (Dabrafenib + Palbociclib; first compound 0.009487 µM) | relative viability (Dabrafenib + Palbociclib; first compound 0.03 µM) | relative viability (Dabrafenib + Palbociclib; first compound 0.09487 µM) | relative viability (Dabrafenib + Palbociclib; first compound 0.3 µM) | relative viability (VX-702 + Decitabine; first compound 0.02 µM) | relative viability (VX-702 + Decitabine; first compound 0.2 µM) | relative viability (VX-702 + Decitabine; first compound 0.6325 µM) | relative viability (VX-702 + Decitabine; first compound 2 µM) | relative viability (Dabrafenib + Pemetrexed; first compound 0.003 µM) |
| --- | --- | --- | --- | --- | --- | --- | --- | --- | --- | --- | --- | --- | --- | --- | --- | --- | --- | --- |
| HCC-78 | 0.303 | 0.33 | 0.287 | 0.32 | 0.935 | 0.91 | 0.879 | 0.795 | 0.366 | 0.481 | 0.414 | 0.426 | 0.498 | 0.744 | 0.669 | 0.715 | 0.665 |  |
| NCI-H647 | 1.29 | 1 | 1.08 | 1.14 | 0.186 | 0.167 | 0.159 | 0.16 | 0.328 | 0.377 | 0.305 | 0.395 | 0.349 | 0.475 | 0.383 | 0.335 | 0.306 | 0.187 |
| NCI-H1666 | 1 | 0.862 | 0.88 | 0.909 | 0.864 | 0.877 | 0.97 | 0.865 | 0.643 | 0.671 | 0.675 | 0.565 | 0.686 | 0.655 | 0.691 | 0.751 | 0.536 | 0.787 |
| NCI-H3122 | 0.822 | 0.735 | 0.676 | 0.859 | 0.195 | 0.214 | 0.203 | 0.215 | 0.186 | 0.207 | 0.2 | 0.167 | 0.181 | 0.435 | 0.371 | 0.417 | 0.435 | 0.19 |
| NCI-H520 | 0.919 | 0.788 | 0.796 | 1.06 | 0.6 | 0.625 | 0.669 | 0.652 | 0.216 | 0.228 | 0.196 | 0.241 | 0.217 | 0.571 | 0.513 | 0.444 | 0.418 | 0.697 |
| HCC-44 | 0.861 | 0.866 | 0.588 | 0.8 | 0.58 | 0.697 | 0.598 | 0.651 | 1.01 | 0.956 | 0.943 | 0.842 | 0.983 | 1 | 0.969 | 1.02 | 0.924 | 0.61 |
| NCI-H1915 | 1.04 | 1.05 | 1.1 | 1.15 | 0.451 | 0.457 | 0.272 | 0.372 | 0.52 | 0.579 | 0.447 | 0.417 | 0.508 | 0.275 | 0.284 | 0.258 | 0.268 | 0.507 |
| NCI-H358 | 0.804 | 0.778 | 0.777 | 0.973 | 0.166 | 0.152 | 0.209 | 0.163 | 0.111 | 0.149 | 0.12 | 0.153 | 0.122 | 0.204 | 0.333 | 0.244 | 0.223 | 0.169 |
| NCI-H1395 | 1.2 | 1.11 | 0.967 | 1.38 | 0.813 | 0.907 | 0.749 | 0.806 |  | 0.655 | 0.623 | 0.642 | 0.623 | 0.664 | 0.714 | 0.728 | 0.64 |  |
| NCI-H2126 | 0.708 | 0.708 | 0.718 | 0.698 | 0.808 | 0.623 | 0.706 | 0.756 | 0.294 | 0.333 | 0.373 | 0.359 | 0.382 | 0.547 | 0.567 | 0.566 | 0.595 | 0.624 |
| NCI-H23 | 0.659 | 0.65 | 0.683 | 0.998 | 0.67 | 0.504 | 0.7 | 0.597 |  | 0.575 | 0.465 | 0.455 | 0.634 | 0.322 | 0.35 | 0.321 | 0.317 |  |
| NCI-H650 | 1.11 |  | 1.15 | 1.34 | 0.938 | 0.846 | 0.522 | 0.464 |  | 0.375 | 0.308 | 0.305 | 0.238 | 0.385 | 0.344 | 0.3 | 0.324 |  |
| LCLC-103H | 0.964 | 0.949 | 0.977 | 0.9 | 0.455 | 0.532 | 0.42 | 0.4 | 0.467 | 0.495 | 0.432 | 0.455 | 0.514 | 0.733 | 0.735 | 0.685 | 0.746 | 0.473 |
| NCI-H441 | 0.847 | 0.537 | 0.727 | 0.759 | 0.232 | 0.255 | 0.259 | 0.263 |  | 0.268 | 0.239 | 0.2 | 0.248 | 0.238 | 0.258 | 0.251 | 0.212 |  |
| UMC-11 | 0.954 | 0.973 | 0.955 | 1.29 | 0.806 | 0.727 | 0.822 | 0.871 | 0.33 | 0.31 | 0.288 | 0.327 | 0.349 | 0.515 | 0.616 | 0.643 | 0.791 | 0.761 |
| LK-2 | 0.611 |  | 0.635 | 1.18 | 0.239 |  | 0.253 | 0.301 | 0.687 | 0.377 |  | 0.555 | 0.84 | 0.26 | 0.329 | 0.218 | 0.318 | 0.249 |
| COR-L23 | 0.947 | 0.831 | 0.841 | 0.986 | 0.213 | 0.193 | 0.209 | 0.196 | 0.25 | 0.328 | 0.245 | 0.275 | 0.207 | 0.518 | 0.521 | 0.435 | 0.525 | 0.18 |
| NCI-H2405 | 0.672 | 0.766 | 0.774 | 0.949 | 0.967 | 0.687 | 0.878 | 0.839 |  | 0.555 | 0.374 | 0.491 | 0.485 | 0.727 | 0.709 | 0.709 | 0.759 |  |
| HOP-62 | 1.12 | 1.17 | 1.06 | 1.19 | 0.255 | 0.286 | 0.273 | 0.25 | 0.466 | 0.423 | 0.433 | 0.471 | 0.498 | 0.209 | 0.166 | 0.206 | 0.196 | 0.253 |
| NCI-H1975 | 0.738 | 0.664 | 0.716 | 0.869 | 0.282 | 0.272 | 0.28 | 0.292 | 0.437 | 0.581 | 0.553 | 0.456 | 0.384 | 0.367 | 0.35 | 0.344 | 0.362 | 0.304 |
| NCI-H2085 | 1.08 | 0.838 | 0.959 | 0.955 | 1.05 | 0.861 | 0.864 | 1.08 | 0.455 | 0.463 | 0.501 | 0.471 | 0.456 | 0.568 | 0.575 | 0.627 | 0.524 | 0.707 |
| NCI-H460 | 0.465 | 0.46 | 0.448 | 0.487 | 0.0868 | 0.0634 | 0.0648 | 0.0684 | 0.229 | 0.1 | 0.148 | 0.226 | 0.111 | 0.522 | 0.494 | 0.599 | 0.469 | 0.0599 |
| NCI-H1755 | 0.907 | 0.891 | 0.925 | 1.01 | 0.427 | 0.395 | 0.47 | 0.424 | 0.429 | 0.425 | 0.435 | 0.411 | 0.415 | 0.699 | 0.732 | 0.703 | 0.797 | 0.36 |
| PC-14 | 1.05 | 0.912 | 0.927 | 1.01 | 0.135 | 0.133 | 0.125 | 0.154 |  | 0.643 | 0.618 | 0.522 | 0.65 | 0.199 | 0.261 | 0.221 | 0.218 |  |
| 201T | 0.997 | 1.04 | 1.03 | 1.02 | 0.352 | 0.332 | 0.307 | 0.287 | 0.368 | 0.366 | 0.368 | 0.318 | 0.376 | 0.86 | 0.838 | 0.871 | 0.886 | 0.332 |
| COR-L 105 | 1.08 | 0.947 | 0.868 | 1.24 | 1.2 | 0.799 | 1.19 | 1.29 | 0.414 | 0.396 | 0.398 | 0.417 | 0.367 | 0.619 | 0.722 | 0.696 | 0.636 | 1 |
| A-427 | 0.997 | 0.99 | 1.1 | 1.17 | 1.04 | 0.828 | 0.803 | 0.987 | 0.485 | 0.537 | 0.509 | 0.459 | 0.533 | 0.623 | 0.503 | 0.54 | 0.542 | 0.891 |
| NCI-H1734 | 0.626 | 0.596 | 0.588 | 0.559 | 0.417 | 0.397 | 0.421 | 0.411 |  | 0.352 | 0.287 | 0.344 | 0.347 | 0.493 | 0.484 | 0.477 | 0.47 |  |
| NCI-H1944 | 0.76 | 0.775 | 0.818 | 0.605 | 0.58 | 0.587 | 0.444 | 0.668 | 0.325 | 0.342 | 0.326 | 0.319 | 0.318 | 0.431 | 0.437 | 0.46 | 0.431 | 0.569 |
| LOU-NH91 | 0.699 | 0.683 | 0.702 | 0.562 | 0.34 | 0.403 | 0.409 | 0.409 |  | 0.558 | 0.589 | 0.533 | 0.543 | 0.837 | 0.832 | 0.815 | 0.766 |  |
